The source of these data is BindingDB's records for doi:10.1016/s0960-894x(03)00663-2 (Universidad De Buenos Aires, 2003).

Where only a bound is given, the exact number is not on record here.

Experiment [1] addresses Farnesyl pyrophosphate synthase (Trypanosoma cruzi). Kind of experiment: Inhibition of Trypanosoma cruzi farnesyl pyrophosphate synthase.
A short description of experiment [2]: Binding affinity towards Trypanosoma cruzi farnesyl pyrophosphate synthase (TcFPPS).
Experiment [3] concerns the target Farnesyl pyrophosphate synthase (Trypanosoma cruzi). The description is as above.
Experiment in experiment [4]: as above
This is another data set of the same source.

A word on the IC50: it is the concentration needed to halve the response being measured. High values mean weaker potency, low ones greater potency. Broadly, the Ki is the equilibrium dissociation constant of an inhibitor or competing ligand from its target. In turn, `CCCC(P(=O)(O)O)P(=O)(O)O` [(1-Phosphono-butyl)-phosphonic acid] had a half-inhibitory concentration (IC50) in experiment [1] of 150 µM. In addition, affinity in experiment [2] was put at a Ki of 17 µM.
As for `CCCCCCC(P(=O)(O)O)P(=O)(O)O` [(1-Phosphono-heptyl)-phosphonic acid], in experiment [1], the 50% inhibitory concentration (IC50) came to 4.54 µM. This compound yielded a Ki in experiment [3] of 0.54 µM.
In turn, `CCCCCC(P(=O)(O)O)P(=O)(O)O` [(1-Phosphono-hexyl)-phosphonic acid] showed an IC50 in experiment [1] of 5.67 µM. Moreover, the Ki in experiment [4] is 0.47 µM.
`CCCCCCCCC(P(=O)(O)O)P(=O)(O)O` [(1-Phosphono-nonyl)-phosphonic acid]: in experiment [1], the concentration for half-maximal inhibition (IC50) came to 4.25 µM. The compound further yielded a Ki in experiment [3] of 0.31 µM.
The like results for `CCCCCCCC(P(=O)(O)O)P(=O)(O)O` [(1-Phosphono-octyl)-phosphonic acid] were, in that order, 19.7 µM and 1.88 µM.
In turn, `CCCCC(P(=O)(O)O)P(=O)(O)O` [(1-Phosphono-pentyl)-phosphonic acid] registered a concentration for half-maximal inhibition (IC50) in experiment [1] of 5.71 µM. Further, in experiment [2], affinity was put at a Ki of 0.79 µM.
Turning to `CCC(P(=O)(O)O)P(=O)(O)O` [(1-Phosphono-propyl)-phosphonic acid], the concentration for half-maximal inhibition (IC50) in experiment [1] is more than 100 µM.
